Laboratory results: US10278931B2, “Composition for treatment of inflammatory bowel disease and atopic dermatitis” (INNOPHARMASCREEN INC., priority 2015, dated 2019)

Legend:
caspase-1 = molecular target: T1, caspase-1 (Homo sapiens, UniProt P29466); assay: Caspase-1 assay using HMC-1 cell extracts; assay type: cell-based
T1 construct: a caspase-1 assay was conducted using cell extracts; endogenous in cells; host or cells: HMC-1 (human mast cells)
T1 sequence (P29466 120-297 limits assumed): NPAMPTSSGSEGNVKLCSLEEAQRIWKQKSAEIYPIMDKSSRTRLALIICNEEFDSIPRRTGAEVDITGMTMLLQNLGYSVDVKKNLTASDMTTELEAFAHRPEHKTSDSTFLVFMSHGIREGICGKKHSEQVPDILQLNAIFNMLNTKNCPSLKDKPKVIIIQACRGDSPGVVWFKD
T1 sequence (P29466 317-404 limits assumed): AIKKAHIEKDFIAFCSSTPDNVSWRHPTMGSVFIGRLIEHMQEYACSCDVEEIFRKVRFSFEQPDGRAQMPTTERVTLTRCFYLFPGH

SD rats = assay: Acute dermal toxicity test; assay type: in vivo; details: for Number of death on day 1 / Number of death on day 2 / Number of death on day 3 / Number of death on day 4 / Number of death on day 5 / Number of death on day 6 / Number of death on day 7 / Number of death on day 8-14 / Number of death on day 0: dose group 200 (head μg/kg bw); for Number of death on day 0: single transdermal
Protocol: (1) Environmental Conditions: In the present experiment, experimental animals were bred in a clean animal breeding room (small animal room #2-302) at Hoseo University Safety Evaluation Center, set under environmental conditions: temperature of 22±3° C.; relative humidity of 50±20%; ventilation frequency of 10 to 15 times/hour; illumination period of 12 hours; and illuminance of 150 Lux to 300 Lux.
(2) Cages and rugs: Two or three animals per sex were accommodated in each of polycarbonate cages (270×500×200 mm, KYERYONG SCIENCE) with a stainless steel mesh lid during an acclimation period, and after group division, 1 animal per sex was accommodated therein. As the rugs, sterile betachips (NEPCO) irradiated with gamma rays were used.
(3) Feed and drinking water: The animals were fed freely a mouse feed for laboratory, animals (5053-Picolab Rodent 20) manufactured by PMI Nutrition International, and filtered water treated with ultraviolet sterilization (R/O water) was freely supplied as drinking water.
(4) Examination of contaminant in feed and drinking water: Contaminants in the feed were examined by receiving a test result from the feed manufacturer, and the quality of drinking water was checked for contamination by regular inspection according to the corresponding SOP of the present test institute and it was confirmed that there were no contaminants.
(A) About 24 hours before administration, hairs on the dorsal part was removed such that the hair-removed site accounted for about 10% or more of the entire surface area thereof, and attention was paid not to injure the skin.
(B) On the day of administration, a dosage for each individual was calculated, and then a test material was sufficiently wetted with a solvent and then applied on the site corresponding to about 10% (about 44 cm) of the entire surface area.
(C) The test material was kept in contact with the skin using a porous gauze, a non-irritating tape, and a bandage during the 24-hour exposure period.
(D) When the exposure period was terminated, the remaining test material was removed using tepid water.
(A) General symptom observation: All animals were observed intensively from 30 minutes to 4 hours after administration, and general symptoms were observed once a day for 14 days. At the time of observation, death and clinical symptoms were recorded on an individual basis.
(B) Body weight measurement: All animals were measured at the time of receipt, at the time of group division, immediately before administration (day of administration), and on day 1, day 4, day 7, day 10, and day 14 after initiation of administration.
(C) Autopsy: During the test, dead animals were immediately autopsied and organs were inspected with the naked eye, and at the end of the test, all living animals were euthanized by CO2 gas inhalation and venesectioned, and then the organs visually examined.
(E) Statistical analysis: Body weight data were expressed as mean and standard deviation, and no statistical analysis of body weight was performed.

[1] = system: balb/c mice with DNCB-induced atopic dermatitis; assay: DNCB-induced atopic dermatitis model; assay type: in vivo; details: DNCB-applied balb/c mice, concentration of 0.011 μM (so in the source)
[2] = system: TSLP secretion from human mast cells (HMC-1 cells); assay: TSLP secretion ELISA in PMACI-stimulated mast cells; assay type: cell-based
Protocol: (1) Cell culture: A human mast cell line (HMC-1) was cultured in an IMDM supplemented with 10% FBS at 37° C. and 5% CO2. Candidate materials were dissolved in DMSO, and then filtered using a 0.22 μm filter. The resulting candidate materials were diluted with DMSO and the HMC-1 cells were treated therewith.
(3) Enzyme-linked immunosorbent assay (ELISA): Mast cells (3×10^6 cells/ml) were stabilized for 1 hour, and then treated with 0.1 μM, 1 μM, and 10 μM of candidate materials, followed by treatment with PMACI for 8 hours. The mast cells were centrifuged to obtain supernatants. To measure the amount of TSLP secreted from the cells, ELISA was used. The ELISA was performed in 96-well plates coated with 1 μg/well of TSLP capture Ab. The coated plates were washed twice with PBS. The cells were treated with PBS containing 10% FBS for 2 hours. Thereafter, the cells were washed with PBS containing 0.05% Tween-20 (Sigma), and recombinant TSLP was used to draw a standard curve. Subsequently, the plates were exposed to a biotinylated-TSLP antibody, Avidin peroxidase, an ARTS substrate containing 30% H2O2, and then measured at 405 nm.

Cl.N=C(N)NC(=N)Nc1ccc(Cl)cc1 [IPS-07001]
caspase-1 activity in HMC-1 cells (caspase-1): significantly inhibited
Number of death on day 1 (SD rats; Female): 0
Number of death on day 2 (SD rats; Female): 0
Number of death on day 3 (SD rats; Female): 0
Number of death on day 4 (SD rats; Female): 0
Number of death on day 5 (SD rats; Female): 0
Number of death on day 6 (SD rats; Female): 0
Number of death on day 7 (SD rats; Female): 0
Number of death on day 8-14 (SD rats; Female): 0
Number of death on day 0 (SD rats; Female): 0
Number of death on day 1 (SD rats; Male): 0
Number of death on day 2 (SD rats; Male): 0
Number of death on day 3 (SD rats; Male): 0
Number of death on day 4 (SD rats; Male): 0
Number of death on day 5 (SD rats; Male): 0
Number of death on day 6 (SD rats; Male): 0
Number of death on day 7 (SD rats; Male): 0
Number of death on day 8-14 (SD rats; Male): 0
Number of death on day 0 (SD rats; Male): 0
dead animals during the test period (SD rats; all test material-administered groups, 14 days): No dead animals
Gross findings (internal and external) (SD rats; rat, in vivo): NGF ^a)
body weight from day 2 (SD rats; rat, in vivo): normal body weight increase pattern
body weight on day 1 after administration (SD rats; rat, in vivo): decrease in body weight
clinical symptoms, 4 hour (SD rats; rat, in vivo): NCS
clinical symptoms, Day 1 (SD rats; rat, in vivo): NCS
clinical symptoms, Day 2 (SD rats; rat, in vivo): NCS
clinical symptoms, Day 3 (SD rats; rat, in vivo): NCS
clinical symptoms, Day 4 (SD rats; rat, in vivo): NCS
clinical symptoms, Day 5 (SD rats; rat, in vivo): NCS
clinical symptoms, Day 6 (SD rats; rat, in vivo): NCS
clinical symptoms, Day 7 (SD rats; rat, in vivo): NCS
clinical symptoms, Day 8 (SD rats; rat, in vivo): NCS
clinical symptoms, Day 9 (SD rats; rat, in vivo): NCS
clinical symptoms, Day 10-14 (SD rats; rat, in vivo): NCS
visual pathological examination (autopsy) (SD rats; surviving animals after observation period): no individual showed any abnormalities
IL-6 level in dorsal skin [1]: significantly regulated
TSLP production ([2]; HMC-1 cells, concentration of 0.011 μM (so in the source), non-cytotoxic): significantly regulated
TSLP secretion from mast cells ([2]; PMACI-stimulated HMC-1 cells, ELISA): significantly inhibited
